Assay results reported in PubChem BioAssay AID1963449 (Molecular Pharmacology Branch, DTP, NCI, 2024).

System: 596521-263-R-J1-PDC complex spheroid growth
Assay: Anticancer human tumor 596521-263-R-J1-PDC patient-derived soft tissue sarcoma cell line growth inhibition [Asc]
Details: for IC50: curve of first compound; for viability, T/C: stronger effect = lower value
In short: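 Tumor cells were grown as multicellular spheroids with stromal HUVEC and mesenchymal stem cells and treated singly or in combination. Concentrations fell in half-log steps from the clinical Cmax, or from 10 microM where none was known.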

[1] = second compound 0.0316 µM, first compound 0.00316 µM
[2] = second compound 0.0316 µM, first compound 0.01 µM
[3] = second compound 0.0316 µM, first compound 0.0316 µM
[4] = second compound 0.0316 µM, first compound 0.1 µM
[5] = second compound 0.0316 µM, first compound 0.316 µM
[6] = second compound 0.0316 µM, first compound 1 µM
[7] = second compound 0.1 µM, first compound 0.00316 µM
[8] = second compound 0.1 µM, first compound 0.01 µM
[9] = second compound 0.1 µM, first compound 0.0316 µM
[10] = second compound 0.1 µM, first compound 0.1 µM
[11] = second compound 0.1 µM, first compound 0.316 µM
[12] = second compound 0.1 µM, first compound 1 µM
[13] = second compound 0.316 µM, first compound 0.00316 µM
[14] = second compound 0.316 µM, first compound 0.01 µM
[15] = second compound 0.316 µM, first compound 0.0316 µM
[16] = second compound 0.316 µM, first compound 0.1 µM
[17] = second compound 0.316 µM, first compound 0.316 µM
[18] = second compound 0.316 µM, first compound 1 µM
[19] = second compound 1 µM, first compound 0.00316 µM
[20] = second compound 1 µM, first compound 0.01 µM
[21] = second compound 1 µM, first compound 0.0316 µM
[22] = second compound 1 µM, first compound 0.1 µM
[23] = second compound 1 µM, first compound 0.316 µM
[24] = second compound 1 µM, first compound 1 µM
[25] = second compound 3.16 µM, first compound 0.00316 µM
[26] = second compound 3.16 µM, first compound 0.01 µM
[27] = second compound 3.16 µM, first compound 0.0316 µM
[28] = second compound 3.16 µM, first compound 0.1 µM
[29] = second compound 3.16 µM, first compound 0.316 µM
[30] = second compound 3.16 µM, first compound 1 µM
[31] = second compound 10 µM, first compound 0.00316 µM
[32] = second compound 10 µM, first compound 0.01 µM
[33] = second compound 10 µM, first compound 0.0316 µM
[34] = second compound 10 µM, first compound 0.1 µM
[35] = second compound 10 µM, first compound 0.316 µM
[36] = second compound 10 µM, first compound 1 µM
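Further: spheroids exposed to compounds for 7 days.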

CCN1CCN(Cc2ccc(Nc3ncc(F)c(-c4cc(F)c5nc(C)n(C(C)C)c5c4)n3)nc2)CC1 + Cc1c(S(C)(=O)=O)c(-c2cc(F)cc(N3CCN(c4ccc(NS(=O)(=O)c5ccc(NC(CCN6CCC(C(=O)OCCCP(=O)(O)O)CC6)CSc6ccccc6)c(S(=O)(=O)C(F)(F)F)c5)cc4)CC3)c2)c(-c2ccc(Cl)cc2)n1C(C)C was tested, and the IC50 (second compound 0.0316 µM) was greater than 1000 nM, the IC50 (second compound 0.1 µM) was greater than 1000 nM and the IC50 (second compound 0.316 µM) was greater than 1000 nM. It also gave an IC50 (second compound 1 µM) greater than 1000 nM, an IC50 (second compound 3.16 µM) greater than 1000 nM and an IC50 (second compound 10 µM) greater than 1000 nM. The viability, T/C [1] was 94.2%, the viability, T/C [2] was 95.2% and the viability, T/C [3] was 92%. For the same compound, the viability, T/C [4] was 84.3%, the viability, T/C [5] was 91.4% and the viability, T/C [6] was 97%. The viability, T/C [7] was 93.7%, the viability, T/C [8] was 91.5% and the viability, T/C [9] was 94.1%. The viability, T/C [10] was 81.1%, the viability, T/C [11] was 88.7% and the viability, T/C [12] was 82%. The viability, T/C [13] was 102%, the viability, T/C [14] was 79% and the viability, T/C [15] was 77.8%. For the same compound, the viability, T/C [16] was 75.7%, the viability, T/C [17] was 75.3% and the viability, T/C [18] was 83.8%. The viability, T/C [19] was 83%, the viability, T/C [20] was 73.9% and the viability, T/C [21] was 78.5%. For the same compound, the viability, T/C [22] was 70.5%, the viability, T/C [23] was 87.7% and the viability, T/C [24] was 67.1%. For the same compound, the viability, T/C [25] was 68.1%, the viability, T/C [26] was 69.6% and the viability, T/C [27] was 63.3%. For the same compound, the viability, T/C [28] was 59.6%, the viability, T/C [29] was 66.8% and the viability, T/C [30] was 66.4%. For the same compound, the viability, T/C [31] was 58.1%, the viability, T/C [32] was 57.1% and the viability, T/C [33] was 56%. It also gave a viability, T/C [34] of 54.8%, a viability, T/C [35] of 57% and a viability, T/C [36] of 55.1%.
Cn1ncnc1[C@H]1c2n[nH]c(=O)c3cc(F)cc(c23)N[C@@H]1c1ccc(F)cc1 + Cc1c(S(C)(=O)=O)c(-c2cc(F)cc(N3CCN(c4ccc(NS(=O)(=O)c5ccc(NC(CCN6CCC(C(=O)OCCCP(=O)(O)O)CC6)CSc6ccccc6)c(S(=O)(=O)C(F)(F)F)c5)cc4)CC3)c2)c(-c2ccc(Cl)cc2)n1C(C)C gave an IC50 (second compound 0.0316 µM) greater than 100 nM, an IC50 (second compound 0.1 µM) greater than 100 nM and an IC50 (second compound 0.316 µM) greater than 100 nM. The IC50 (second compound 1 µM) was greater than 100 nM, the IC50 (second compound 3.16 µM) was 38.5 nM and the IC50 (second compound 10 µM) was 1.07 nM. For the same compound, the viability, T/C (second compound 0.0316 µM, first compound 0.000316 µM) was 97.5%, the viability, T/C (second compound 0.0316 µM, first compound 0.001 µM) was 112% and the viability, T/C [1] was 81.9%. The viability, T/C [2] was 94.1%, the viability, T/C [3] was 87.4% and the viability, T/C [4] was 79.3%. For the same compound, the viability, T/C (second compound 0.1 µM, first compound 0.000316 µM) was 90.6%, the viability, T/C (second compound 0.1 µM, first compound 0.001 µM) was 97.8% and the viability, T/C [7] was 94.3%. It also gave a viability, T/C [8] of 81.6%, a viability, T/C [9] of 78.5% and a viability, T/C [10] of 74.5%. The viability, T/C (second compound 0.316 µM, first compound 0.000316 µM) was 88.5%, the viability, T/C (second compound 0.316 µM, first compound 0.001 µM) was 86.6% and the viability, T/C [13] was 77.7%. It also gave a viability, T/C [14] of 82.8%, a viability, T/C [15] of 75.5% and a viability, T/C [16] of 73.4%. It also gave a viability, T/C (second compound 1 µM, first compound 0.000316 µM) of 90.9%, a viability, T/C (second compound 1 µM, first compound 0.001 µM) of 85.3% and a viability, T/C [19] of 85.2%. It also gave a viability, T/C [20] of 65%, a viability, T/C [21] of 68.4% and a viability, T/C [22] of 61.1%. The viability, T/C (second compound 3.16 µM, first compound 0.000316 µM) was 58.7%, the viability, T/C (second compound 3.16 µM, first compound 0.001 µM) was 69.5% and the viability, T/C [25] was 57.3%. It also gave a viability, T/C [26] of 57.4%, a viability, T/C [27] of 52.6% and a viability, T/C [28] of 40.2%. For the same compound, the viability, T/C (second compound 10 µM, first compound 0.000316 µM) was 54.1%, the viability, T/C (second compound 10 µM, first compound 0.001 µM) was 50.3% and the viability, T/C [31] was 43.6%. For the same compound, the viability, T/C [32] was 42%, the viability, T/C [33] was 42% and the viability, T/C [34] was 28.9%.
Work on O=C(c1ccc(F)c(F)c1Nc1ccc(I)cc1F)N1CC(O)([C@@H]2CCCCN2)C1 + Cc1c(S(C)(=O)=O)c(-c2cc(F)cc(N3CCN(c4ccc(NS(=O)(=O)c5ccc(NC(CCN6CCC(C(=O)OCCCP(=O)(O)O)CC6)CSc6ccccc6)c(S(=O)(=O)C(F)(F)F)c5)cc4)CC3)c2)c(-c2ccc(Cl)cc2)n1C(C)C yielded an IC50 (second compound 0.0316 µM) of 349 nM, an IC50 (second compound 0.1 µM) of 236 nM and an IC50 (second compound 0.316 µM) of 209 nM. It also gave an IC50 (second compound 1 µM) of 172 nM, an IC50 (second compound 3.16 µM) of 124 nM and an IC50 (second compound 10 µM) of 55.5 nM. It also gave a viability, T/C [1] of 96%, a viability, T/C [2] of 93% and a viability, T/C [3] of 93.3%. For the same compound, the viability, T/C [4] was 74.9%, the viability, T/C [5] was 52.7% and the viability, T/C [6] was 30.2%. It also gave a viability, T/C [7] of 101%, a viability, T/C [8] of 102% and a viability, T/C [9] of 103%. For the same compound, the viability, T/C [10] was 70.2%, the viability, T/C [11] was 45.5% and the viability, T/C [12] was 29.9%. For the same compound, the viability, T/C [13] was 87.1%, the viability, T/C [14] was 84% and the viability, T/C [15] was 87.1%. For the same compound, the viability, T/C [16] was 71.1%, the viability, T/C [17] was 38.1% and the viability, T/C [18] was 22.9%. It also gave a viability, T/C [19] of 83.3%, a viability, T/C [20] of 70.9% and a viability, T/C [21] of 84.8%. It also gave a viability, T/C [22] of 66.3%, a viability, T/C [23] of 31.4% and a viability, T/C [24] of 21.8%. For the same compound, the viability, T/C [25] was 62.8%, the viability, T/C [26] was 71.4% and the viability, T/C [27] was 62.2%. It also gave a viability, T/C [28] of 55.8%, a viability, T/C [29] of 26.7% and a viability, T/C [30] of 16.8%. For the same compound, the viability, T/C [31] was 54.1%, the viability, T/C [32] was 57.4% and the viability, T/C [33] was 55%. It also gave a viability, T/C [34] of 45%, a viability, T/C [35] of 26.8% and a viability, T/C [36] of 18.6%.
